From patent US9133128B2, “Pyrazole derivatives as cannabinoid receptor 1 antagonists” (Research Triangle Institute, priority 2011, dated 2015)

Molecular target: T1, CB1 (Homo sapiens, UniProt P21554)
T1 construct: expressed in transfected cells; host or cells: CHO-K1 (membranes)
Experiment: CB1 activated Gαq16-coupled intracellular calcium mobilization assay in CHO-K1 cells (apparent affinity Ke)
Assay type: cell-based
Settings: Table 2; calcium mobilization, apparent affinity; read-out: Ke CB1

T1 sequence (P21554 whole entry): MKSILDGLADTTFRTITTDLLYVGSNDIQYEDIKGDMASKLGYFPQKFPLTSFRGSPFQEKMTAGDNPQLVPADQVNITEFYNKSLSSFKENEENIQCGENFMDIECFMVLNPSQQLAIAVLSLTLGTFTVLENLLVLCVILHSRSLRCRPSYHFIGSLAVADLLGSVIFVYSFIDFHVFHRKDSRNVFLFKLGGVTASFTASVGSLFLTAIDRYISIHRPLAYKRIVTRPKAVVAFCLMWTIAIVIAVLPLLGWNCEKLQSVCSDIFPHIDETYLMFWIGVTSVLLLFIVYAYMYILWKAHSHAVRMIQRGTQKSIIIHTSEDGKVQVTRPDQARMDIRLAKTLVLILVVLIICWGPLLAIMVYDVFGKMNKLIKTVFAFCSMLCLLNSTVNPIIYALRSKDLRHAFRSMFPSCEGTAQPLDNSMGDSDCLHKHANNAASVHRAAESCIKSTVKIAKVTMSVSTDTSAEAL

Kb [nM]	Compound
304	Cc1c(C(=O)NCCCCCCCNS(N)(=O)=O)nn(-c2ccc(Cl)cc2Cl)c1-c1ccc(Cl)cc1 [5-(4-chlorophenyl)-1-(2,4-dichlorophenyl)-4-methyl-N-[7-(sulfamoylamino)heptyl]-1H-pyrazole-3-carboxamide]
5340	Cc1c(C(=O)NCCCN(C)CCCNS(C)(=O)=O)nn(-c2ccc(Cl)cc2Cl)c1-c1ccc(Cl)cc1 [5-(4-chlorophenyl)-1-(2,4-dichlorophenyl)-N-{3-[(3-methanesulfonamidopropyl)(methyl)amino]propyl}-4-methyl-1H-pyrazole-3-carboxamide]
2830	Cc1c(C(=O)NCc2cccc(CNS(C)(=O)=O)c2)nn(-c2ccc(Cl)cc2Cl)c1-c1ccc(Cl)cc1 [5-(4-chlorophenyl)-1-(2,4-dichlorophenyl)-N-{[3-(methanesulfonamidomethyl)phenyl]methyl}-4-methyl-1H-pyrazole-3-carboxamide]
2930	Cc1c(C(=O)NCc2ccc(CNS(C)(=O)=O)cc2)nn(-c2ccc(Cl)cc2Cl)c1-c1ccc(Cl)cc1 [5-(4-chlorophenyl)-1-(2,4-dichlorophenyl)-N-{[4-(methanesulfonamidomethyl)phenyl]methyl}-4-methyl-1H-pyrazole-3-carboxamide]

The remaining lines, values behind:

Compound	Kb [nM]
Cc1c(C(=O)NCc2cccc(CNS(N)(=O)=O)c2)nn(-c2ccc(Cl)cc2Cl)c1-c1ccc(Cl)cc1 [5-(4-chlorophenyl)-1-(2,4-dichlorophenyl)-4-methyl-N-({3-[(sulfamoylamino)methyl]phenyl}methyl)-1H-pyrazole-3-carboxamide]	4200
Cc1c(C(=O)NCc2ccc(CNS(N)(=O)=O)cc2)nn(-c2ccc(Cl)cc2Cl)c1-c1ccc(Cl)cc1 [5-(4-chlorophenyl)-1-(2,4-dichlorophenyl)-4-methyl-N-({4-[(sulfamoylamino)methyl]phenyl}methyl)-1H-pyrazole-3-carboxamide]	376
Cc1c(C(=O)N[C@H]2CC[C@H](NS(N)(=O)=O)CC2)nn(-c2ccc(Cl)cc2Cl)c1-c1ccc(Cl)cc1 [5-(4-chlorophenyl)-1-(2,4-dichlorophenyl)-4-methyl-N-[(1r,4r)-4-(sulfamoylamino)cyclohexyl]-1H-pyrazole-3-carboxamide]	9430
Cc1c(C(=O)N[C@H]2CC[C@H](NS(C)(=O)=O)CC2)nn(-c2ccc(Cl)cc2Cl)c1-c1ccc(Cl)cc1 [5-(4-chlorophenyl)-1-(2,4-dichlorophenyl)-4-methyl-N-[(1r,4r)-4-methanesulfonamido-cyclohexyl]-1H-pyrazole-3-carboxamide]	>10000

Same assay, conditions: Table 4; calcium mobilization; read-out: Ke (nM) at CB1

Kb [nM]	Compound
907	Cc1c(C(=O)N2CCC(O)(c3ccccc3)CC2)nn(-c2ccc(Cl)cc2Cl)c1-c1ccc(C#N)cc1 [CN, phenyl, OH, 4-[1-(2,4-dichlorophenyl)-3-[(4-hydroxy-4-phenylpiperidin-1-yl)carbonyl]-4-methyl-1H-pyrazol-5-yl]benzonitrile]
1920	Cc1c(C(=O)N2CCC(N)CC2)nn(-c2ccc(Cl)cc2Cl)c1-c1ccc(Cl)cc1 [Cl, H, NH2, 1-{[5-(4-Chlorophenyl)-1-(2,4-dichlorophenyl)-4-methyl-1H-pyrazol-3-yl]carbonyl}piperidin-4-amine]
546	CCCNC(=O)NC1CCN(C(=O)c2nn(-c3ccc(Cl)cc3Cl)c(-c3ccc(Cl)cc3)c2C)CC1 [Cl, H, NHC(O)NHC3H7, 1-(1-{[5-(4-Chlorophenyl)-1-(2,4-dichlorophenyl)-4-methyl-1H-pyrazol-3-yl]carbonyl}piperidin-4-yl)-3-propylurea]
395	CCCCNC(=O)NC1CCN(C(=O)c2nn(-c3ccc(Cl)cc3Cl)c(-c3ccc(Cl)cc3)c2C)CC1 [Cl, H, NHC(O)NHC4H9, 3-Butyl-1-(1-{[5-(4-chlorophenyl)-1-(2,4-dichlorophenyl)-4-methyl-1H-pyrazol-3-yl]carbonyl}piperidin-4-yl)urea]

Same assay, conditions: Table 5; calcium mobilization; read-out: Ke (nM) at CB1

Compound	Kb [nM]
4-C-5-(4-Chlorophenyl)-1-(2,4-dichlorophenyl)-4-methyl-1H-pyrazole-3-1-N-propylpiperidine-1,4-diamido [NH(n-propyl)]	66.5
